According to patent US8828954B2, “Use for scopolin and derivatives thereof” (Yonsei University Technology Holdings, Inc., priority 2010, dated 2014):
Marks after values point to notes of the source that are not given here.

How the values were obtained:
3T3-L1 cells = test: Inhibition of adipocyte differentiation in 3T3-L1 cells (Oil Red O staining); format: cell-based, mouse; details: scopolin 0.1, 1, 10, 50 and 100 μM, 14 days, FIG. 1
Description: Mouse adipocyte cell line (3T3-L1) was used to investigate the effect of scopolin on differentiation and growth of adipocytes. The preadipocytes, 3T3-L1 cells, were seeded on a 12-well plate and cultured to confluency using Dulbecco's modified Eagle's medium (DMEM) containing 1% penicillin-streptomycin, 1% non-essential amino acid and 10% fatal bovine serum (FBS), in a 5% CO2 incubator at 37° C. The 3T3-L1 cells grown to confluency were cultured for 2 days in MDI medium containing 0.5 mM isobutylmethylxanthine, 1 μM dexamethasone and 1 μg/mL insulin to differentiate them into differention adipocytes. Then, the cells were further cultivated in DMEM containing 1 μg/mL insulin to differentiate them into mature adipocytes. The cells were further cultured for 10 more days while replacing DMEM every other day to obtain fully differentiated adipocytes.
From the first day when MDI was added to the 3T3-L1 cells, scopolin was treated at concentrations of 0.1, 1, 10, 50 and 100 μM with 2-day intervals. Scopolin was used after being dissolved in DMSO. Only DMSO was added to the negative control group. […] In order to measure the level of triglyceride contained in the differentiated 3T3-L1 cells, the stained lipid droplets were dissolved in 1 mL of isobutanol and optical density (OD) value was measured at 600 nm.

[1] = Body weight and visceral fat weight in high-fat diet fed mice, 10 weeks; format: in vivo, mouse; details: 0.02% scopolin in high-fat diet
Description: (§1) The obesity-inducing control diet used in the present test was high-fat diet (HFD: 40% fat calorie, 17 g lard+3% corn oil/100 g diet). Diets supplemented with scopolin had the same composition as HF, except that each derivative was included at 0.02%. The diabetic drug metformin was added at 0.1% or the hyperlipidemic drug atorvastatin was added at 0.01% to HFD as controls. The normal diet (ND) was prepared according to the AIN-76 rodent diet composition (American Institute of Nutrition, Report of the American Institute of Nutrition ad hoc committee on standards for nutritional studies. J. Nutr., 107: 1340-1348, (1977)) (Table 1).
(§2) 5-week-old male […] mice (Orient, Korea) were accustomed to the laboratory environment for 1 week while feeding solid feed. Then, they were randomly divided into high-fat diet and test groups and bred for a total of 10 weeks. The diet was given between 10 and 11 a.m. every day together with water. Food intake was measured every day and body weight was measured once a week. In order to avoid transient body weight increase after feed intake, body weight was measured 2 hours after removing the feed.
(§3) After fasting the test animal for at least 12 hours and anesthetizing with diethyl ether, blood, liver and visceral fat (epididymal fat, perirenal fat, mesenteric fat and retroperitoneal fat) were taken and weighed after washing with 0.1 M PBS (pH 7.4). Blood taken from the abdominal aorta was centrifuged at 1000×g for 15 minutes for the separation of plasma.

[2] = Plasma lipid and glucose levels in high-fat diet fed mice; format: in vivo, mouse; details: SPID group, 10 weeks
Description: as §1, §2, §3
(§4) After 10 weeks of breeding, total cholesterol, HDL-cholesterol, triglyceride and glucose levels in the plasma and lipid levels in the liver tissue were measured as follows: Total cholesterol, HDL-cholesterol, triglyceride, free fatty acid and glucose levels in the plasma were measured twice for each using a commercially available kit (Bio Clinical System). The level of LDL+VLDL in plasma was calculated by subtracting HDL level from the total cholesterol level. The activities of ALT (alanine aminotransferase) and AST (aspartate aminotransferase) used as liver function indicator were measured using a commercially available kit (Bio Clinical System, Korea).

[3] = Liver weight and liver tissue lipid levels in high-fat diet fed mice; format: in vivo, mouse; details: SPID group, 10 weeks
Description: as §1, §2, §3
In addition, lipids were extracted from the liver tissue according to Folch et al.'s method (Folch J, Lees M, Sloane Stanley G H. A simple method for the isolation and purification of total lipides from animal tissues. J Biol. Chem. 1957; 226:497-509). After adding 1 mL of distilled water to 0.25 g of the liver tissue, the liver tissue was homogenized using a Polytron homogenizer (IKA-Werke GmbH & Co., Ultra-Turrax, Staufen, Germany). After adding 5 mL of chloroform:methanol solution (2:1, v/v) to the homogenate and mixing well, the mixture was centrifuged at 1000×g for 10 minutes. After adding 2 mL of chloroform:methanol solution (2:1, v/v) again to the supernatant, the same procedure was repeated to completely separate the lipid components of the liver. After adding 3 mL of chloroform:methanol:0.05% CaCl2 (3:48:47, v/v/v) solution to the remaining pellets and mixing well for 1 minute, followed by centrifugation at 1000×g for 10 minutes, the resulting pellets were completely dried with nitrogen gas. The dried lipids were dissolved in 1 mL of methanol and then analyzed. The commercially available kits (Bio Clinical System, Korea) were used to measure the levels of triglyceride, cholesterol and free fatty acids of the liver tissue.

[4] = ALT and AST activities (liver function indicators) in high-fat diet fed mice; format: in vivo, mouse; details: SPID group, 10 weeks
Description: as §1, §2, §3, §4

C/EBPα = test: RT-PCR of C/EBPα mRNA in epididymal fat tissue; format: in vivo, mouse; details: SPID vs HFD, relative to GAPDH, FIG. 4
Description: (§5) Accordingly, to identify that scopolin inhibits directly obesity-related gene expressions, the inventors examined whether obesity-related gene is expressed according to scopolin treatment through RNA was isolated from epididymal fat tissues obtained in the example 3 and performed RT-PCR.
(§6) First, after adding 1 mL of Trizol agent per 0.1 g of epididymal fat tissues, the mixture was homogenized and centrifuged at 12,000×g for 10 min at 4° C. The supernatant was transferred to a new tube and 200 μl of chloroform was added to the tube, followed by vortexing. The same procedure was repeated twice and then the supernatant was transferred to a new tube, followed by addition of isopropanol and the supernatant at 1:1 ratio. The mixture was vigorously shaken 10 times and then incubated for 10 min at room temperature, followed by centrifugation at 12,000×g for 10 min at 4° C. to remove the supernatant. After adding 1 mL of 70% ethanol to the remaining pellet, it was centrifuged at 7,500×g for 5 min at 4° C. After removing the ethanol, the RNA pellet contained in the tube was dried for 5 min at 4° C. and dissolved in nuclease-free water. The RNA concentration of sample was measured at a wavelength of 260 nm and 280 nm using a UV/VIS spectrophotometer (Beckman coulter, DU730) and the integrity of RNA sample was verified by agarose gel electrophoresis. […]

PPARγ2 = test: RT-PCR of PPARγ2 mRNA in epididymal fat tissue; format: in vivo, mouse; details: SPID vs HFD, relative to GAPDH, FIG. 4
Description: as §5, §6

aP2 = test: RT-PCR of aP2 mRNA in epididymal fat tissue; format: in vivo, mouse; details: SPID vs HFD, relative to GAPDH, FIG. 4
Description: as §5, §6

UCP1 = test: RT-PCR of UCP1 mRNA in epididymal fat tissue; format: in vivo, mouse; details: HFD-induced decrease, relative to GAPDH, FIG. 5
Description: as §5, §6

UCP3 = test: RT-PCR of UCP3 mRNA in epididymal fat tissue; format: in vivo, mouse; details: HFD-induced decrease, relative to GAPDH, FIG. 5
Description: as §5, §6

[5] = system: mouse intraperitoneal macrophages; details: macrophages stimulated with ionophore; J Nat Prod 1996; cited from earlier work
acetylcholine esterase = acetylcholine esterase (Homo sapiens, UniProt P22303); details: J Med Chem 2004; cited from earlier work
Sequence of acetylcholine esterase (P22303 32-614): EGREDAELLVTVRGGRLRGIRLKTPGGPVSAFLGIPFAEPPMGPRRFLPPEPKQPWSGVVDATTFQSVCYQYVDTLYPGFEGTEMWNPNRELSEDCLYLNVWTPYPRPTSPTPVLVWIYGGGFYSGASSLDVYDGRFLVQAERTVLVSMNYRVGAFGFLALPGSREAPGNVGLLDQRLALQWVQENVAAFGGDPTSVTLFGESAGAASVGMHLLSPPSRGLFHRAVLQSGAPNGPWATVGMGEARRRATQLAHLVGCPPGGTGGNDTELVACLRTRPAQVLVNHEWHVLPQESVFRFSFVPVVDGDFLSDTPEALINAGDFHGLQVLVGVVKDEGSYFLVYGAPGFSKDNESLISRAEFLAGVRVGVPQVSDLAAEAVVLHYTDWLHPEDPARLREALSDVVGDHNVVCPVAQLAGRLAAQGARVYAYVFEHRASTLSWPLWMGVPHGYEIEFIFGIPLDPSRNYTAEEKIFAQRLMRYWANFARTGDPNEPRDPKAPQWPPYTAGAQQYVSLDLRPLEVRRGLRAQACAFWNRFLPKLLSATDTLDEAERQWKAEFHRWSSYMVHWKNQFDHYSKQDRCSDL

## COc1cc2ccc(=O)oc2cc1OC1OC(CO)C(O)C(O)C1O [scopolin, 7-(beta-D-glucopyranosoyloxy)-6-methoxy-2H-1-benzopyran-2-one]
3T3-L1 cells
  differentiation of the preadipocytes (Oil Red O staining): reduced the differentiation of the preadipocytes in a concentration-dependent manner
[1]
  decrease of cumulative body weight gain as compared to HFD: 22%
  decrease of final body weight as compared to HFD: 10%
  reduction of epididymal fat-pad weight as compared to HFD: 29%
  reduction of mesenteric fat-pad weight as compared to HFD: 28%
  reduction of perirenal fat-pad weight as compared to HFD: 33%
  reduction of retroperitoneal fat-pad weight as compared to HFD: 31%
  reduction of total visceral fat weight as compared to HFD: 30%
[2]
  lower plasma level of LDL+VLDL cholesterol as compared to HFD: 30%
  lower plasma level of free fatty acid as compared to HFD: 27%
  lower plasma level of total cholesterol as compared to HFD: 23%
  lower plasma level of triglyceride as compared to HFD: 28%
  reduction of the fasting blood sugar level as compared to HFD: 16%
[2]; plasma, mean±SEM, n=8
  Free fatty acid: 635 ± 65.6^b μEq/g
  Total cholesterol: 5.07 ± 0.26^b mmol/l
  Triglyceride: 0.65 ± 0.07^b mmol/l
[2]; plasma, total cholesterol minus HDL
  LDL + VLDL cholesterol: 3.88 ± 0.27^b mmol/l
[2]; plasma, fasting, mean±SEM, n=8
  Glucose: 7.51 ± 0.32^b mmol/l
[3]
  decrease of cholesterol in liver tissue as compared to HFD: 21%
  decrease of free fatty acid in liver tissue as compared to HFD: 33%
  decrease of triglyceride in liver tissue as compared to HFD: 22%
  reduction of absolute weight of liver as compared to HFD: 23%
[3]; mean±SEM, n=8
  Liver weight: 1.7 ± 0.14^b g
[3]; liver tissue, mean±SEM, n=8
  Cholesterol: 102.9 ± 5.4^b μmol/g
  Free fatty acid: 33.6 ± 4.6^b μEq/g
  Triglyceride: 55.6 ± 5.3^b μmol/g
[4]
  decrease of plasma activity of ALT as compared to HFD: 46%
  decrease of plasma activity of AST as compared to HFD: 41%
[4]; plasma activity, mean±SEM, n=8
  ALT (alanine aminotransferase): 5.55 ± 0.78^b IU/L
  AST (aspartate aminotransferase): 5.80 ± 0.43 IU/L
C/EBPα
  C/EBPα mRNA expression level: significantly reduced expressions
PPARγ2
  PPARγ2 mRNA expression level: significantly reduced expressions
aP2
  aP2 mRNA expression level: significantly reduced expressions
UCP1
  UCP1 mRNA expression level: significantly reversed
UCP3
  UCP3 mRNA expression level: significantly reversed
[5]
  eicosanoid release: suppression of eicosanoid release
Acetylcholine esterase
  acetylcholine esterase inhibition: inhibits acetylcholine esterase
